pEC50: −log10 of the molar value.
Molecular target: RIPK1 (recombinant GST-RIPK1 kinase domain, residues 1-327) (Homo sapiens (Human), UniProt Q13546)
Test: RIPK1-ADP-Glo Enzymatic Assay
Assay type: biochemical
Conditions: ADP-Glo; 25 nM GST-RIPK1, 300 μM ATP; assay lower limit ~25 nM; read-out: RIPK1 V0 Ec50
In short: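 Compounds titrated 10-pt 1:3 from 100000 nM top (1% DMSO); 30 min preinc w/ 25 nM Sf21-expressed enzyme, RT; start w/ ATP (300 μM final) + dephos-MBP (3 μM); 150 min; ADP-Glo lumi; 4-param fit → EC50.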

RIPK1 (recombinant GST-RIPK1 kinase domain, residues 1-327), sequence (Q13546 1-327): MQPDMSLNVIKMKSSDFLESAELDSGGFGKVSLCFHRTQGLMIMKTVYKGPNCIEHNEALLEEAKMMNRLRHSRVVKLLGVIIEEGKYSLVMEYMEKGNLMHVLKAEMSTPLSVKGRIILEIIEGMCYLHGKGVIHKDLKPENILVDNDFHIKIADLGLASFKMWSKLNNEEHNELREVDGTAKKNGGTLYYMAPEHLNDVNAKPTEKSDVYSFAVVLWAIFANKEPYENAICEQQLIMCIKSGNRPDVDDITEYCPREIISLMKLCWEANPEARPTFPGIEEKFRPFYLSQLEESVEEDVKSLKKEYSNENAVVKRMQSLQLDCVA

Structure (SMILES) | pEC50
O=C(c1cn2ccccc2n1)N1CCC2(CC1)O[C@@H]1CC[C@@H](c3cc(F)cc(F)c3)N1C2=O [Example 5.71, (5′S,7a′R)-5′-(3,5-difluoro-phenyl)-1-(imidazo[1,2-a]-pyridine-2-carbonyl)tetra-hydro-3′H-spiro[piperidine-4,2′-pyrrolo[2,1-b]oxazol]-3′-one] | 6.81
COc1ncccc1C(=O)N1CCC2(CC1)O[C@@H]1CC[C@@H](c3cc(F)cc(F)c3)N1C2=O [Example 6.18, (5′S,7a′R)-5′-(3,5-difluorophenyl)-1-(2-methoxypyridine-3-carbonyl)tetrahydro-3′H-spiro[piperidine-4,2′-pyrrolo[2,1-b] [1,3]oxazol]-3′-one] | 6.81
N#Cc1cc(C(=O)N2CCC3(CC2)O[C@@H]2CC[C@@H](c4cccc(F)c4)N2C3=O)ccc1F [Example 6.113, 2-fluoro-5-[(5′S,7a′R)-5′-(3-fluorophenyl)-3′-oxotetrahydro-1H,3′H-spiro[piperidine-4,2′-pyrrolo[2,1-b][1,3]-oxazole]-1-carbonyl] benzonitrile] | > 7.60
O=C(c1ccc2sncc2c1)N1CCC2(CC1)O[C@@H]1CC[C@@H](c3cc(F)cc(F)c3)N1C2=O [Example 6.65, (5′S,7a′R)-1-(1,2-benzothiazole-5-carbonyl)-5′-(3,5-difluorophenyl)tetra-hydro-3′H-spiro [piperidine-4,2′-pyrrolo[2,1-b][1,3]-oxazol]-3′-one] | > 7.60
C#Cc1cccc(C(=O)N2CCC3(CC2)O[C@@H]2CC[C@@H](c4ccccc4)N2C3=O)c1 [Example 6.141, (5′S,7a′R)-1-(3-ethynylbenzene-1-carbonyl)-5′-phenyl-tetrahydro-3′H-spiro [piperidine-4,2′-pyrrolo[2,1-b][1,3]oxazol]-3′-one] | > 7.60
O=C(c1cc(F)ccc1F)N1CCC2(CC1)O[C@@H]1CC[C@@H](c3ccccc3F)N1C2=O [Example 1.12, (5′S,7a′R)-1-(2,5-difluorobenzoyl)-5′-(2-fluorophenyl)tetrahydro-3′H-spiro[piperidine-4,2′-pyrrolo[2,1-b]oxazol]-3′-one] | > 7.60
O=C(c1cnccn1)N1CCC2(CC1)O[C@@H]1CC[C@@H](c3cc(F)cc(F)c3)N1C2=O [Example 6.85, (5′S,7a′R)-5′-(3,5-difluorophenyl)-1-(pyrazine-2-carbon-yl)tetrahydro-3′H-spiro[piperidine-4,2′-pyrrolo[2,1-b][1,3]-oxazol]-3′-one] | 7.43
O=C(c1cccc(F)c1F)N1CCC2(CC1)O[C@@H]1CC[C@@H](c3ccccc3)N1C2=O [Example 5.9, (5′S,7a′R)-1-(2,3-difluorobenzene-1-car-bonyl)-5′-phenyltetra-hydro-3′H-spiro[piperi-dine-4,2′-pyrrolo[2,1-b] [1,3]oxazol]-3′-one] | > 7.60
O=C(c1ccncn1)N1CCC2(CC1)O[C@@H]1CC[C@@H](c3cc(F)cc(F)c3)N1C2=O [Example 6.63, (5′S,7a′R)-5′-(3,5-difluorophenyl)-1-(pyrimidine-4-carbon-yl)tetrahydro-3′H-spiro[piperidine-4,2′-pyrrolo[2,1-b][1,3]-oxazol]-3′-one] | 7.24
O=C(c1cnnc2ccccc12)N1CCC2(CC1)O[C@@H]1CC[C@@H](c3cc(F)cc(F)c3)N1C2=O [Example 6.58, (5′S,7a′R)-1-(cinn-oline-4-carbonyl)-5′-(3,5-difluorophenyl) tetrahydro-3′H-spiro [piperidine-4,2′-pyrrolo[2,1-b][1,3]-oxazol]-3'-one] | 6.58
N#Cc1ccc(N2CCC3(CC2)O[C@@H]2CC[C@@H](c4cc(F)cc(F)c4)N2C3=O)c(F)c1 [Example 4.24, 4-[(5′S,7a′R)-5′-(3,5-difluorophenyl)-3′-oxotetrahydro-1H,3′H-spiro[piperidine-4,2′-pyrrolo[2,1-b] [1,3]oxazol]-1-yl]-3-fluorobenzonitrile] | > 7.60
Cc1ocnc1C(=O)N1CCC2(CC1)O[C@@H]1CC[C@@H](c3ccccc3)N1C2=O [Example 6.146, (5′S,7a′R)-1-(5-methyl-1,3-oxazole-4-carbonyl)-5′-phenyl-tetrahydro-3′H-spiro [piperidine-4,2′-pyrrolo[2,1-b][1,3]oxazol]-3′-one] | 7.46
N#Cc1ccc(N2CCC3(CC2)O[C@@H]2CC[C@@H](c4ccccc4F)N2C3=O)n2ncnc12 [Example 4.249, 5-[(5′S,7a′R)-5′-(2-fluorophenyl)-3′-oxotetrahydro-1H,3′H-spiro[piperidine-4,2′-pyrrolo[2,1-b] [1,3]oxazol]-1-yl][1,2,4]triazolo[1,5-a] pyridine-8-carbonitrile] | > 7.60
O=C1N2[C@@H](CC[C@H]2c2cccc(F)c2)OC12CCN(c1cc(F)ccn1)CC2 [Example 4.126, (5′S,7a′R)-5′-(3-fluorophenyl)-1-(4-fluoropyridin-2-yl)tetrahydro-3′H-spiro[piperidine-4,2′-pyrrolo[2,1-b] [1,3]oxazol]-3′-one] | 7.33
N#Cc1ccc(N2CCC3(CC2)O[C@@H]2CC[C@@H](c4cncc(F)c4)N2C3=O)n2nccc12 [Example 14.3, 7-((5′S,7a′R)-5′-(5-fluoropyridin-3-yl)-3′-oxotetrahydro-3′H-spiro[piperidine-4,2′-pyrrolo[2,1-b]oxazol]-1-yl)pyrazolo[1,5-a]pyridine-4-carbonitrile] | > 7.60
O=C(c1nc2cnccc2s1)N1CCC2(CC1)O[C@@H]1CC[C@@H](c3cc(F)cc(F)c3)N1C2=O [Example 6.44, (5′S,7a′R)-5′-(3,5-difluorophenyl)-1-([1,3]thiazolo[4,5-c]pyridine-2-carbonyl) tetrahydro-3′H-spiro [piperidine-4,2′-pyrrolo[2,1-b][1,3]oxazol]-3′-one] | 7.17
O=C1N2[C@@H](CC[C@H]2c2cc(F)cc(F)c2)OC12CN(c1ccnc3c(F)cnn13)C2 [Example 4.117, (5′S,7a′R)-5′-(3,5-difluorophenyl)-1-(3-fluoropyrazolo[1,5-a]pyrimidin-7-yl)tetrahydro-3′H-spiro[azetidine-3,2′-pyrrolo[2,1-b]oxazol]-3′-one] | > 7.60
Cc1ccccc1CN1CCC2(CC1)O[C@@H]1CC[C@@H](c3cc(F)cc(F)c3)N1C2=O [Example 22.5, (5′S,7a′R)-5′-(3,5-difluorophenyl)-1-[(2-methylphenyl)methyl] tetrahydro-3′H-spiro[piperidine-4,2′-pyrrolo[2,1-b][1,3]oxazol]-3′-one] | 6.67
O=C1N2[C@@H](CC[C@H]2c2ccccc2)OC12CCN(c1cc(OC3CCC3)ccn1)CC2 [Example 11.20, (5′S,7a′R)-1-[4-(cyclobutyloxy)pyridin-2-yl]-5′-phenyltetrahydro-3′H-spiro[piperidine-4,2′-pyrrolo[2,1-b][1,3]oxazol]-3′-one] | 7.57
COc1nc(N2CCC3(CC2)O[C@@H]2CC[C@@H](c4cc(F)cc(F)c4)N2C3=O)ncc1C [Example 4.59, (5′S,7a′R)-5′-(3,5-difluorophenyl)-1-(4-methoxy-5-methylpyrimidin-2-yl)tetrahydro-3′H-spiro[piperidine-4,2′-pyrrolo[2,1-b] [1,3]oxazol]-3′-one] | 6.83
C#Cc1ccc(C(=O)N2CCC3(CC2)O[C@@H]2CC[C@@H](c4cc(F)cc(F)c4)N2C3=O)cc1 [Example 5.27, (5′S,7a′R)-5′-(3,5-difluoro-phenyl)-1-(4-ethynyl-benzoyl)tetrahydro-3′H-spiro[piperidine-4,2′-pyrrolo[2,1-b]oxazol]-3′-one] | 6.77
